Peptide text beside a SMILES is read from it.
What was measured:
[1] = tested on: Bacillus subtilis; details: LB broth, 37°C, 20 h
Description: (§2) Antimicrobial activity was determined as a quantitative minimum inhibitory concentration (MIC) by observing bacterial growth in the presence of different concentrations of tested peptides. Mid-exponential phase bacteria were added to the solutions of the tested antimicrobial peptide at different concentrations (0.5 to 100 µM) in LB broth in multi-well plates. The plates were incubated at 37°C for 20 h while being continuously shaken in a Bioscreen C instrument (Finland). The absorbance was measured at 540 nm every 15 min and each peptide was tested at least 3 times in duplicate. In the experiments was routinely used 1.2 10^3 - 7.5 10^3 CFU of bacteria. Tetracycline in a concentration range of 0.1 - 50 µM was tested as a standard.

[2] = tested on: Staphylococcus aureus; details: LB broth, 37°C, 20 h
Description: as §2

[3] = tested on: Pseudomonnas aeruginosa; details: LB broth, 37°C, 20 h
Description: as §2

[4] = tested on: Escherichia coli; details: LB broth, 37°C, 20 h
Description: as §2

[5] = Determination of hemolytic activity; type: cell-based; details: rat red blood cells (5% suspension), 1 h at 37°C, physiological solution, read-out: hemolytic activity LC50
Description: (§1) The peptides in the concentration (1-200 µM) were incubated with rat red blood cells (5%) for 1 h at 37°C in a physiological solution at a final volume of 0.2 ml The samples were then centrifuged for 5 min at 250 g, and the absorbance of the supernatant was determined at 540 nm. Supernatants of red blood cells suspended in physiological solution and in 0.2% TRITON X100 in physiological solution served as controls for zero hemolysis (blank) and 100% hemolysis, respectively.

[6] = tested on: rat red blood cells; test: Determination of hemolytic activity; type: cell-based; details: rat red blood cells (5%), 1 h at 37°C, physiological solution
Description: as §1

## CC[C@H](C)[C@H](NC(=O)[C@H](CC(C)C)NC(=O)[C@H](Cc1c[nH]cn1)NC(=O)CNC(=O)[C@H](CC(C)C)NC(=O)[C@@H](NC(=O)[C@H](CCCCN)NC(=O)[C@H](CO)NC(=O)[C@H](Cc1c[nH]c2ccccc12)NC(=O)[C@H](CCSC)NC(=O)CN)[C@@H](C)CC)C(=O)N[C@@H](CCCNC(=N)N)C(N)=O [(1), H-Gly-Met-Trp-Ser-Lys-Ile-Leu-Gly-His-Leu-Ile-Arg-NH2] (H-GMWSKILGHLIR-NH2)
[1]
  antimicrobial activity MIC B.s.: 0,7 µM
[2]
  antimicrobial activity MIC S.a.: 7,4 µM
[3]
  antimicrobial activity MIC P.a.: 45 µM
[4]
  antimicrobial activity MIC E. c.: 3,8 µM
[5]
  HC50 at 1 h: 80 µM

## CC[C@H](C)[C@H](NC(=O)[C@H](CC(C)C)NC(=O)[C@H](Cc1c[nH]cn1)NC(=O)CNC(=O)[C@H](CC(C)C)NC(=O)[C@@H](NC(=O)[C@H](CCCCN)NC(=O)[C@H](CCCCN)NC(=O)[C@H](Cc1c[nH]c2ccccc12)NC(=O)[C@H](CCSC)NC(=O)CN)[C@@H](C)CC)C(=O)N[C@@H](CCCNC(=N)N)C(N)=O [(1-A/1), H-Gly-Met-Trp-Lys-Lys-Ile-Leu-Gly-His-Leu-Ile-Arg-NH2] (H-GMWKKILGHLIR-NH2)
[1]
  antimicrobial activity MIC B.s.: 1,1 µM
[2]
  antimicrobial activity MIC S.a.: 6,0 µM
[3]
  antimicrobial activity MIC P.a.: 12,5 µM
[4]
  antimicrobial activity MIC E. c.: 1,8 µM
[5]
  HC50 at 1 h: 93 µM

## CC[C@H](C)[C@H](NC(=O)[C@H](CCCCN)NC(=O)[C@H](CO)NC(=O)[C@H](Cc1c[nH]c2ccccc12)NC(=O)[C@H](CCSC)NC(=O)CN)C(=O)N[C@@H](CC(C)C)C(=O)NCC(=O)N[C@@H](Cc1c[nH]cn1)C(=O)N[C@@H](CC(C)C)C(=O)N[C@@H](CCCCN)C(=O)N[C@@H](CCCNC(=N)N)C(N)=O [(1-A/2), H-Gly-Met-Trp-Ser-Lys-Ile-Leu-Gly-His-Leu-Lys-Arg-NH2] (H-GMWSKILGHLKR-NH2)
[1]
  antimicrobial activity MIC B.s.: 2,2 µM
[2]
  antimicrobial activity MIC S.a.: 100 µM
[3]
  antimicrobial activity MIC P.a.: 90 µM
[4]
  antimicrobial activity MIC E. c.: 28 µM
[5]
  HC50 at 1 h: > 200 µM

## CC[C@H](C)[C@H](NC(=O)[C@H](CC(C)C)NC(=O)[C@H](Cc1c[nH]cn1)NC(=O)CNC(=O)[C@H](CC(C)C)NC(=O)[C@@H](NC(=O)[C@H](CCCCN)NC(=O)[C@H](CO)NC(=O)[C@H](Cc1c[nH]c2ccccc12)NC(=O)[C@H](CCSC)NC(=O)CN)[C@@H](C)CC)C(=O)N[C@@H](CCCCN)C(N)=O [(1-A/3), H-Gly-Met-Trp-Ser-Lys-Ile-Leu-Gly-His-Leu-Ile-Lys-NH2] (H-GMWSKILGHLIK-NH2)
[1]
  antimicrobial activity MIC B.s.: 0,75 µM
[2]
  antimicrobial activity MIC S.a.: 12,5 µM
[3]
  antimicrobial activity MIC P.a.: 50 µM
[4]
  antimicrobial activity MIC E. c.: 6.0 µM
[5]
  HC50 at 1 h: 111 µM

## CC[C@H](C)[C@H](NC(=O)[C@H](CC(C)C)NC(=O)[C@H](CCCCN)NC(=O)CNC(=O)[C@H](CC(C)C)NC(=O)[C@@H](NC(=O)[C@H](CCCCN)NC(=O)[C@H](CCCCN)NC(=O)[C@H](Cc1c[nH]c2ccccc12)NC(=O)[C@H](CCCCN)NC(=O)CN)[C@@H](C)CC)C(=O)N[C@@H](CCCNC(=N)N)C(N)=O [(1-A/4), H-Gly-Lys-Trp-Lys-Lys-Ile-Leu-Gly-Lys-Leu-Ile-Arg-NH2] (H-GKWKKILGKLIR-NH2)
[1]
  antimicrobial activity MIC B.s.: 1,3 µM
[2]
  antimicrobial activity MIC S.a.: 60,0 µM
[3]
  antimicrobial activity MIC P.a.: 14,2 µM
[4]
  antimicrobial activity MIC E. c.: 1,8 µM
[5]
  HC50 at 1 h: > 200 µM

## CC[C@H](C)[C@H](NC(=O)[C@H](Cc1c[nH]cn1)NC(=O)[C@H](CCCCN)NC(=O)[C@H](CC(C)C)NC(=O)[C@H](CC(C)C)NC(=O)[C@H](CO)NC(=O)[C@H](CCSC)NC(=O)[C@H](Cc1c[nH]c2ccccc12)NC(=O)[C@H](CCCCN)NC(=O)CN)C(=O)N[C@@H](CC(C)C)C(=O)N[C@@H](CCCCN)C(N)=O [(2), H-Gly-Lys-Trp-Met-Ser-Leu-Leu-Lys-His-Ile-Leu-Lys-NH2] (H-GKWMSLLKHILK-NH2)
[1]
  antimicrobial activity MIC B.s.: 0,8 µM
[2]
  antimicrobial activity MIC S.a.: 7,5 µM
[3]
  antimicrobial activity MIC P.a.: 33 µM
[4]
  antimicrobial activity MIC E. c.: 2,2 µM
[5]
  HC50 at 1 h: 80 µM

## CC[C@H](C)[C@H](NC(=O)[C@H](Cc1c[nH]cn1)NC(=O)[C@H](CCCCN)NC(=O)[C@H](CC(C)C)NC(=O)[C@H](CC(C)C)NC(=O)[C@H](CO)NC(=O)[C@H](CCCCN)NC(=O)[C@H](Cc1c[nH]c2ccccc12)NC(=O)[C@H](CCCCN)NC(=O)CN)C(=O)N[C@@H](CC(C)C)C(=O)N[C@@H](CCCCN)C(N)=O [(2-A/1), H-Gly-Lys-Trp-Lys-Ser-Leu-Leu-Lys-His-Ile-Leu-Lys-NH2] (H-GKWKSLLKHILK-NH2)
[1]
  antimicrobial activity MIC B.s.: 1,5 µM
[2]
  antimicrobial activity MIC S.a.: 25 µM
[3]
  antimicrobial activity MIC P.a.: 12,5 µM
[4]
  antimicrobial activity MIC E. c.: 3 µM
[5]
  HC50 at 1 h: 95 µM

## CC[C@H](C)[C@H](NC(=O)[C@H](Cc1c[nH]cn1)NC(=O)[C@H](CCCCN)NC(=O)[C@H](CC(C)C)NC(=O)[C@H](CC(C)C)NC(=O)[C@H](CCCCN)NC(=O)[C@H](CCSC)NC(=O)[C@H](Cc1c[nH]c2ccccc12)NC(=O)[C@H](CCCCN)NC(=O)CN)C(=O)N[C@@H](CC(C)C)C(=O)N[C@@H](CCCCN)C(N)=O [(2-A/2), H-Gly-Lys-Trp-Met-Lys-Leu-Leu-Lys-His-Ile-Leu-Lys-NH2] (H-GKWMKLLKHILK-NH2)
[1]
  antimicrobial activity MIC B.s.: 0,8 µM
[2]
  antimicrobial activity MIC S.a.: 4,5 µM
[3]
  antimicrobial activity MIC P.a.: 10,7 µM
[4]
  antimicrobial activity MIC E. c.: 2,5 µM
[6]
  hemolytic activity LC50: 87,5 µM

## CC[C@H](C)[C@H](NC(=O)[C@H](CCCCN)NC(=O)[C@H](CCCCN)NC(=O)[C@H](CC(C)C)NC(=O)[C@H](CC(C)C)NC(=O)[C@H](CO)NC(=O)[C@H](CCSC)NC(=O)[C@H](Cc1c[nH]c2ccccc12)NC(=O)[C@H](CCCCN)NC(=O)CN)C(=O)N[C@@H](CC(C)C)C(=O)N[C@@H](CCCCN)C(N)=O [(2-A/3), H-Gly-Lys-Trp-Met-Ser-Leu-Leu-Lys-Lys-Ile-Leu-Lys-NH2] (H-GKWMSLLKKILK-NH2)
[1]
  antimicrobial activity MIC B.s.: 1,2 µM
[2]
  antimicrobial activity MIC S.a.: 6,3 µM
[3]
  antimicrobial activity MIC P.a.: 13,8 µM
[4]
  antimicrobial activity MIC E. c.: 2,7 µM
[5]
  HC50 at 1 h: 126 µM

Source: EP2396020B1, “NOVEL ANTIMICROBIAL PEPTIDES” (Institute Of Organic Chemistry And Biochemistry As CR, …, priority 2009, dated 2010)
